Test results from US9067977B2, “Peptides derivatized with A-B-C-D- and their therapeutical use” (Novo Nordisk A/S, priority 2007, dated 2015).
Starred links: 1 amine or outer side, 2 acyl side, 3 side chain; linkers in the order of their positions; H or OH if unused. Non-standard residues stand in square brackets, D forms with d. Residues, ends and D or L forms follow the SMILES beside them. Groups on a side chain read outwards from the residue. *: point of attachment. C20 diacid = O=C(O)CCCCCCCCCCCCCCCCCCC(=O)*; d(βAsp) = O=C(O)[C@@H](CC(=O)[*:2])N[*:1]; γGlu = O=C(O)[C@H](CCC(=O)[*:2])N[*:1]; Desaminohistidyl = O=C(CCc1c[nH]cn1)*; AEEA = NCCOCCOCC(=O)O; Aib = CC(C)(N)C(=O)O; Inp = O=C(O)C1CCNCC1; Bn = c1ccc(C*)cc1

Biological target: human serum albumin (HSA) (Homo sapiens, UniProt P02768)
Sequence (P02768 25-609): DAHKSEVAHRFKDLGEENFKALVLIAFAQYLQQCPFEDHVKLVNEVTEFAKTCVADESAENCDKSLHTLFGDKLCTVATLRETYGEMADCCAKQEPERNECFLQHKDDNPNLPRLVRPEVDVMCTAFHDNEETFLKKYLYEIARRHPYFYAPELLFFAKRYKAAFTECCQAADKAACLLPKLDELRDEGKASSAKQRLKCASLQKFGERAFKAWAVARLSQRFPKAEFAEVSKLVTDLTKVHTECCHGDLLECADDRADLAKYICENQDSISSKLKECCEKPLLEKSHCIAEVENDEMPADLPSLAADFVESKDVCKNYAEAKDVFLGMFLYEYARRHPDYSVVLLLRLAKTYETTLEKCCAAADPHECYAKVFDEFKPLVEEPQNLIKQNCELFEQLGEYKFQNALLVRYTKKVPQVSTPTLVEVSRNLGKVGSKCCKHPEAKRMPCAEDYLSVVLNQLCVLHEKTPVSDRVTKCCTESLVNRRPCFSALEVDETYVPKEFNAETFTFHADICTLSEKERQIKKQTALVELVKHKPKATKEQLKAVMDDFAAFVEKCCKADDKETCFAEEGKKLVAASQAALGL
Experiment: Albumin binding affinity, competition scintillation proximity assay
Settings: for EC50 at 20 h: human, pH 7.4
[1] = biotinylated human serum albumin on streptavidin-SPA beads

Protocol: Streptavidin-SPA beads (GE Healthcare RPNQ0009) were incubated with biotinylated HSA for 5 hours. The beads were washed with buffer to remove unbound HSA. […] After 20 hours of gentle rocking at room temperature the plates were centrifuged and counted on a TopCounter.

SMILES	EC50	EC50 at 20 h [1]	also measured
CC[C@H](C)[C@H](NC(=O)[C@H](Cc1ccccc1)NC(=O)[C@H](CCC(=O)O)NC(=O)[C@H](CCCCNC(=O)COCCOCCNC(=O)CC[C@H](NC(=O)CC[C@H](NC(=O)CCCCCCCCCCCNC(=O)CCCS(=O)(=O)NC(=O)CCCCCCCCCCCCCCCc1nnn[nH]1)C(=O)O)C(=O)O)NC(=O)[C@H](C)NC(=O)[C@H](C)NC(=O)[C@H](CCC(N)=O)NC(=O)CNC(=O)[C@H](CCC(=O)O)NC(=O)[C@H](CC(C)C)NC(=O)[C@H](Cc1ccc(O)cc1)NC(=O)[C@H](CO)NC(=O)[C@H](CO)NC(=O)[C@@H](NC(=O)[C@H](CC(=O)O)NC(=O)[C@H](CO)NC(=O)[C@@H](NC(=O)[C@H](Cc1ccccc1)NC(=O)[C@@H](NC(=O)CNC(=O)[C@H](CCC(=O)O)NC(=O)C(C)(C)NC(=O)[C@@H](N)Cc1c[nH]cn1)[C@@H](C)O)[C@@H](C)O)C(C)C)C(=O)N[C@@H](C)C(=O)N[C@@H](Cc1c[nH]c2ccccc12)C(=O)N[C@@H](CC(C)C)C(=O)N[C@H](C(=O)N[C@@H](CCCNC(=N)N)C(=O)O)C(C)C [Example 37, N-epsilon26-[2-(2-{2-[(S)-4-Carboxy-4-((S)-4-carboxy-4-{12-[4-(16-(1H-tetrazol-5-yl)hexadecanoylsulfamoyl)butyrylamino]-dodecanoylamino}butyrylamino)butyrylamino]ethoxy}ethoxy)acetyl][Aib8,Arg34]GLP-1-(7-34)]	–	1 to 100 nM	–
CC[C@H](C)[C@H](NC(=O)[C@H](Cc1ccccc1)NC(=O)[C@H](CCC(=O)O)NC(=O)[C@H](CCCNC(=N)N)NC(=O)[C@H](C)NC(=O)[C@H](C)NC(=O)[C@H](CCC(N)=O)NC(=O)[C@H](CCC(=O)O)NC(=O)[C@H](CCC(=O)O)NC(=O)[C@H](CC(C)C)NC(=O)[C@H](Cc1ccc(O)cc1)NC(=O)[C@H](CO)NC(=O)[C@H](CO)NC(=O)[C@@H](NC(=O)[C@H](CC(=O)O)NC(=O)[C@H](CO)NC(=O)[C@@H](NC(=O)[C@H](Cc1ccccc1)NC(=O)[C@@H](NC(=O)CNC(=O)[C@H](CCC(=O)O)NC(=O)[C@H](C)NC(=O)Cc1c[nH]cn1)[C@@H](C)O)[C@@H](C)O)C(C)C)C(=O)N[C@@H](C)C(=O)N[C@@H](Cc1c[nH]c2ccccc12)C(=O)N[C@@H](CC(C)C)C(=O)N[C@H](C(=O)N[C@@H](CCCNC(=N)N)C(=O)NCC(=O)N[C@@H](CCCNC(=N)N)C(=O)N[C@@H](CCCCNC(=O)COCCOCCNC(=O)COCCOCCNC(=O)CC[C@H](NC(=O)[C@H]1CC[C@H](CNC(=O)CCCCCCCCCCCCCCCCCCC(=O)O)CC1)C(=O)O)C(=O)O)C(C)C [Example 54, N-alpha8-[2-(4-imidazolyl)acetyl] N-epsilon37-[2-(2-{2-[2-(2-{2-[(S)-4-Carboxy-4-({trans-4-[(19-carboxynonadecanoylamino)methyl]cyclohexanecarbonyl}amino)butyrylamino]ethoxy}ethoxy)acetylamino]ethoxy}ethoxy)acetyl][Glu22,Arg26,Arg34,Lys37]GLP-1-(8-37)]	–	–	EC50 at 20 h: 150 to 300 nM
CC[C@H](C)[C@H](NC(=O)[C@H](Cc1ccccc1)NC(=O)[C@H](CCC(=O)O)NC(=O)[C@H](CCCNC(=N)N)NC(=O)[C@H](C)NC(=O)[C@H](C)NC(=O)[C@H](CCC(N)=O)NC(=O)[C@H](CCC(=O)O)NC(=O)[C@H](CCC(=O)O)NC(=O)[C@H](CC(C)C)NC(=O)[C@H](Cc1ccc(O)cc1)NC(=O)[C@H](CO)NC(=O)[C@H](CO)NC(=O)[C@@H](NC(=O)[C@H](CC(=O)O)NC(=O)[C@H](CO)NC(=O)[C@@H](NC(=O)[C@H](Cc1ccccc1)NC(=O)[C@@H](NC(=O)CNC(=O)[C@H](CCC(=O)O)NC(=O)[C@H](C)NC(=O)CCc1c[nH]cn1)[C@@H](C)O)[C@@H](C)O)C(C)C)C(=O)N[C@@H](C)C(=O)N[C@@H](Cc1c[nH]c2ccccc12)C(=O)N[C@@H](CC(C)C)C(=O)N[C@H](C(=O)N[C@@H](CCCNC(=N)N)C(=O)NCC(=O)N[C@@H](CCCNC(=N)N)C(=O)NCC(=O)N[C@@H](CCCCNC(=O)CC[C@H](NC(=O)C1CCN(C(=O)CCCCCCCCCCCCCCCCCCC(=O)O)CC1)C(=O)O)C(=O)O)C(C)C [Example 62, [DesaminoHis7,Glu22,Arg26,34]-GLP-1 (7-37)-Lys-((S)-4-Carboxy-4-{[1-(19-carboxy-nonadecanoyl)-piperidine-4-carbonyl]-amino}-butyryl) peptide] (Desaminohistidyl-AEGTFTSDVSSYLEEQAAREFIAWLVRGRGK([γGlu-Inp-C20 diacid])-OH)	300 to 800 nM	–	–
CC[C@H](C)[C@H](NC(=O)[C@H](Cc1ccccc1)NC(=O)[C@H](CC(C)C)NC(=O)[C@H](CCCCNC(=O)COCCOCCNC(=O)COCCOCCNC(=O)C[C@@H](NC(=O)C1CCN(C(=O)CCCCCCCCCCCCCCCCCCC(=O)O)CC1)C(=O)O)NC(=O)[C@@H](NC(=O)[C@H](C)NC(=O)[C@H](CCC(=O)O)NC(=O)[C@H](CCC(=O)O)NC(=O)[C@H](CCC(=O)O)NC(=O)[C@H](CC(C)C)NC(=O)[C@H](CCC(N)=O)NC(=O)[C@H](CCCCN)NC(=O)[C@H](CO)NC(=O)[C@H](CC(C)C)NC(=O)[C@H](CC(=O)O)NC(=O)[C@H](CO)NC(=O)[C@@H](NC(=O)[C@H](Cc1ccccc1)NC(=O)[C@@H](NC(=O)CNC(=O)[C@H](CCC(=O)O)NC(=O)C(C)(C)NC(=O)[C@@H](N)Cc1c[nH]cn1)[C@@H](C)O)[C@@H](C)O)C(C)C)C(=O)N[C@@H](CCC(=O)O)C(=O)N[C@@H](Cc1c[nH]c2ccccc12)C(=O)N[C@@H](CC(C)C)C(=O)N[C@@H](CCCCN)C(=O)N[C@@H](CCC(N)=O)C(=O)NCC(=O)NCC(=O)N1CCC[C@H]1C(=O)N[C@@H](CO)C(=O)N[C@@H](CO)C(=O)NCC(=O)N[C@@H](C)C(=O)N1CCC[C@H]1C(=O)N1CCC[C@H]1C(=O)N1CCC[C@H]1C(=O)N[C@@H](COCc1ccccc1)C(N)=O [Example 2, N-ε^20-{2-[2-(2-{2-[2-((R)-3-carboxy-3-{[1-(19-carboxynonadecanoyl)piperidine-4-carbonyl]amino}propionylamino)ethoxy]ethoxy}acetylamino)ethoxy]ethoxy}acetyl [Aib^2,Leu^14,Lys^20,Gln^28,Ser(O-benzyl)^39] exendin-4 (1-39)amide] (H-H[Aib]EGTFTSDLSKQLEEEAVK([AEEA-AEEA-d(βAsp)-Inp-C20 diacid])LFIEWLKQGGPSSGAPPPS(Bn)-NH2)	300 to 800 nM	–	–

Second part, led by results:

EC50	EC50 at 20 h [1]	SMILES	also measured
800 to 2000 nM	–	CC[C@H](C)[C@H](NC(=O)[C@H](Cc1ccccc1)NC(=O)[C@H](CCC(=O)O)NC(=O)[C@H](CCCNC(=N)N)NC(=O)[C@H](C)NC(=O)[C@H](C)NC(=O)[C@H](CCC(N)=O)NC(=O)[C@H](CCC(=O)O)NC(=O)[C@H](CCC(=O)O)NC(=O)[C@H](CC(C)C)NC(=O)[C@H](Cc1ccc(O)cc1)NC(=O)[C@H](CO)NC(=O)[C@H](CO)NC(=O)[C@@H](NC(=O)[C@H](CC(=O)O)NC(=O)[C@H](CO)NC(=O)[C@@H](NC(=O)[C@H](Cc1ccccc1)NC(=O)[C@@H](NC(=O)CNC(=O)[C@H](CCC(=O)O)NC(=O)C(C)(C)NC(=O)[C@@H](N)Cc1c[nH]cn1)[C@@H](C)O)[C@@H](C)O)C(C)C)C(=O)N[C@@H](C)C(=O)N[C@@H](Cc1c[nH]c2ccccc12)C(=O)N[C@@H](CC(C)C)C(=O)N[C@H](C(=O)N[C@@H](CCCNC(=N)N)C(=O)NCC(=O)N[C@@H](CCCNC(=N)N)C(=O)N[C@@H](CCCCNC(=O)COCCOCCNC(=O)CC[C@H](NC(=O)CC[C@H](NC(=O)CCCCCCCCCCCNC(=O)CCCS(=O)(=O)NC(=O)CCCCCCCCCCCCCCCc1nnn[nH]1)C(=O)O)C(=O)O)C(N)=O)C(C)C [Example 48, N-epsilon37-[2-(2-{2-[(S)-4-Carboxy-4-((S)-4-carboxy-4-{12-[4-(16-(1H-tetrazol-5-yl)hexadecanoylsulfamoyl)butyrylamino]dodecanoylamino}butyrylamino)butyrylamino]ethoxy}ethoxy)acetyl][Aib8,Glu22,Arg26,Arg34,Lys37]GLP-1-(7-37)amide]	–
–	150 to 300 nM	CC[C@H](C)[C@H](NC(=O)[C@H](Cc1ccccc1)NC(=O)[C@H](CCC(=O)O)NC(=O)[C@H](CCCNC(=N)N)NC(=O)[C@H](C)NC(=O)[C@H](C)NC(=O)[C@H](CCC(N)=O)NC(=O)[C@H](CCC(=O)O)NC(=O)[C@H](CCC(=O)O)NC(=O)[C@H](CC(C)C)NC(=O)[C@H](Cc1ccc(O)cc1)NC(=O)[C@H](CO)NC(=O)[C@H](CO)NC(=O)[C@@H](NC(=O)[C@H](CC(=O)O)NC(=O)[C@H](CO)NC(=O)[C@@H](NC(=O)[C@H](Cc1ccccc1)NC(=O)[C@@H](NC(=O)CNC(=O)[C@H](CCC(=O)O)NC(=O)[C@H](C)NC(=O)CCc1c[nH]cn1)[C@@H](C)O)[C@@H](C)O)C(C)C)C(=O)N[C@@H](C)C(=O)N[C@@H](Cc1c[nH]c2ccccc12)C(=O)N[C@@H](CC(C)C)C(=O)N[C@H](C(=O)N[C@@H](CCCNC(=N)N)C(=O)NCC(=O)N[C@@H](CCCNC(=N)N)C(=O)NCC(=O)N[C@@H](CCCCNC(=O)COCCOCCNC(=O)CC[C@H](NC(=O)C1CCN(C(=O)CCCCCCCCCCCCCCCCCCC(=O)O)CC1)C(=O)O)C(=O)O)C(C)C [Example 55, [DesaminoHis7,Glu22,Arg26,34]-GLP-1 (7-37)-Lys-(2-{2-[2-((S)-4-carboxy-4-{[1-(19-carboxynonadecanoyl)piperidine-4-carbonyl]amino}butyrylamino)ethoxy]ethoxy}acetyl) peptide] (Desaminohistidyl-AEGTFTSDVSSYLEEQAAREFIAWLVRGRGK([AEEA-γGlu-Inp-C20 diacid])-OH)	–
